Experimental data from article PMC6979384, “Characterization of the plant homeodomain (PHD) reader family for their histone tail interactions” (Epigenetics & Chromatin, 2020).
Where no end group is shown, it is not given here. [ ]: non-standard residue; d: D form. Lys(Me3) = C[N+](C)(C)CCCC[C@H](N)C(=O)O; pT = C[C@@H](OP(=O)(O)O)[C@H](N)C(=O)O; Lys(Me) = CNCCCC[C@H](N)C(=O)O

How the values were obtained:
Test in all cases: Histone peptide microarray
Format in all cases: binding, human
[1] = test system: PHF21A
Method in brief: (§1)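 Binding of recombinant GST-fused PHD readers (0.5 μM) is detected on an array of 293 histone peptides, modified singly or in combination. An optimized array protocol is followed, and each intensity is the average of quadruplicate measurements with standard deviation.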

[2] = test system: MORC3 (CW)
Method in brief: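 Steps: express and purify GST-tagged PHD reader; incubate 0.5 μM protein on a peptide microarray (293 histone peptides, single or combined PTMs) following an optimized protocol; average signal across 4 replicates.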

[3] = test system: ING3
Method in brief: as §1

[4] = test system: CHD5 (PPCC)
Method in brief: as §1

[5] = test system: PHF13
Method in brief: as §1

[6] = test system: KDM5A (1)
Method in brief: as §1

[7] = test system: PHRF1 (RP)
Method in brief: as §1

[8] = test system: AIRE (PP)
Method in brief: as §1

[9] = test system: DPF2 (PPC2W2)
Method in brief: as §1

[10] = test system: KDM5B (3)
Method in brief: as §1

[11] = test system: ING2
Method in brief: as §1

[12] = test system: ING5
Method in brief: as §1

[13] = test system: SP140L
Method in brief: as §1

[14] = test system: BAZ2B
Method in brief: as §1

[15] = test system: KDM7A
Method in brief: as §1

[16] = test system: CHD4 (PPCC)
Method in brief: as §1

[17] = test system: PHF8
Method in brief: as §1

[18] = test system: RAG2
Method in brief: as §1

[19] = test system: MLL5
Method in brief: as §1

[20] = test system: ING4
Method in brief: as §1

[21] = test system: CHD5 (PCC)
Method in brief: as §1

[22] = test system: PHF2
Method in brief: as §1

[23] = test system: BPTF (PB)
Method in brief: as §1

[24] = test system: TRIM66 (PB)
Method in brief: as §1

[25] = test system: DIDO1
Method in brief: as §1

[26] = test system: KDM4C (TTP)
Method in brief: as §1

[27] = test system: KDM5B (1)
Method in brief: as §1

[28] = test system: ING1
Method in brief: as §1

[29] = test system: KDM5A (3)
Method in brief: as §1

[30] = test system: PHF23
Method in brief: as §1

[31] = test system: TAF3
Method in brief: as §1

[32] = histone peptide array, GST-tagged reader, arrays performed twice, n of 4
[33] = histone peptide array, GST-tagged reader, PPCC = Dual PHD + Dual Chromodomain, arrays performed twice, n of 4
[34] = histone peptide array, GST-tagged reader, PB = PHD + Bromodomain, arrays performed twice, n of 4

In the case of “H3.3K36me3 (27-45): H3.3 27-45 (KSAPSTGGV[Lys(Me3)]KPHRYRPGT; UniProt P84243 28-46, looked up, fragment)”, the “Array Heatmap signal, PHF21A” value [1, 32] is reported as 0.5086, the “Array Heatmap signal, MORC3 (CW)” value ([2]; histone peptide array, GST-tagged reader, CW = CW-type Zn-finger, arrays performed twice, n of 4) is reported as 0.4025 and the “Array Heatmap signal, ING3” value [3, 32] is reported as 0.4806. For the same substance, the “Array Heatmap signal, CHD5 (PPCC)” value [4, 33] was 0.5971, the “Array Heatmap signal, PHF13” value [5, 32] was 0.6344 and the “Array Heatmap signal, KDM5A (1)” value [6, 32] was 0.5417. The “Array Heatmap signal, PHRF1 (RP)” value [7, 32] was 0.4414, the “Array Heatmap signal, AIRE (PP)” value [8, 32] was 0.5852 and the “Array Heatmap signal, DPF2 (PPC2W2)” value ([9]; histone peptide array, GST-tagged reader, PPC2W2 = Dual PHD + C2W2-type Zn-finger, arrays performed twice, n of 4) was 0.6714. The “Array Heatmap signal, KDM5B (3)” value [10, 32] was 0.5477, the “Array Heatmap signal, ING2” value [11, 32] was 0.6059 and the “Array Heatmap signal, ING5” value [12, 32] was 0.3836. The “Array Heatmap signal, SP140L” value [13, 32] was 0.3873, the “Array Heatmap signal, BAZ2B” value [14, 32] was 0.5018 and the “Array Heatmap signal, KDM7A” value [15, 32] was 0.4319. For the same substance, the “Array Heatmap signal, CHD4 (PPCC)” value [16, 33] was 0.6082, the “Array Heatmap signal, PHF8” value [17, 32] was 0.3825 and the “Array Heatmap signal, RAG2” value [18, 32] was 0.254. The “Array Heatmap signal, MLL5” value [19, 32] was 0.5409, the “Array Heatmap signal, ING4” value [20, 32] was 0.493 and the “Array Heatmap signal, CHD5 (PCC)” value ([21]; histone peptide array, GST-tagged reader, PCC = PHD + Dual Chromodomain, arrays performed twice, n of 4) was 0.837. For the same substance, the “Array Heatmap signal, PHF2” value [22, 32] was 0.459, the “Array Heatmap signal, BPTF (PB)” value [23, 34] was 0.3644 and the “Array Heatmap signal, TRIM66 (PB)” value [24, 34] was 0.5777. For the same substance, the “Array Heatmap signal, DIDO1” value [25, 32] was 0.6308, the “Array Heatmap signal, KDM4C (TTP)” value ([26]; histone peptide array, GST-tagged reader, TTP = Tandem Tudor domain + PHD, arrays performed twice, n of 4) was 0.5574 and the “Array Heatmap signal, KDM5B (1)” value [27, 32] was 0.6389. For the same substance, the “Array Heatmap signal, ING1” value [28, 32] was 0.5245, the “Array Heatmap signal, KDM5A (3)” value [29, 32] was 0.4596 and the “Array Heatmap signal, PHF23” value [30, 32] was 0.5271. The “Array Heatmap signal, TAF3” value [31, 32] was 0.2966.

With “H3.3T32pK36me1 (27-45): H3.3 27-45 (KSAPS[pT]GGV[Lys(Me)]KPHRYRPGT; UniProt P84243 28-46, looked up, fragment)” the “Array Heatmap value (peptide array signal)” value (shortened to “Array Heatmap value”) ([1]; PHF21A, sheet "Array Heatmap", each array performed twice, total n = 4) was 0.4142, the “Array Heatmap value” value ([2]; MORC3 (CW), sheet "Array Heatmap", each array performed twice, total n = 4) was 0.3018 and the “Array Heatmap value” value ([3]; ING3, sheet "Array Heatmap", each array performed twice, total n = 4) was 0.3966. The “Array Heatmap value” value ([4]; CHD5 (PPCC), sheet "Array Heatmap", each array performed twice, total n = 4) was 0.4567, the “Array Heatmap value” value ([5]; PHF13, sheet "Array Heatmap", each array performed twice, total n = 4) was 0.5172 and the “Array Heatmap value” value ([6]; KDM5A (1), sheet "Array Heatmap", each array performed twice, total n = 4) was 0.4102. The “Array Heatmap value” value ([7]; PHRF1 (RP), sheet "Array Heatmap", each array performed twice, total n = 4) was 0.3716, the “Array Heatmap value” value ([8]; AIRE (PP), sheet "Array Heatmap", each array performed twice, total n = 4) was 0.3866 and the “Array Heatmap value” value ([9]; DPF2 (PPC2W2), sheet "Array Heatmap", each array performed twice, total n = 4) was 0.6269. The “Array Heatmap value” value ([10]; KDM5B (3), sheet "Array Heatmap", each array performed twice, total n = 4) was 0.4083, the “Array Heatmap value” value ([11]; ING2, sheet "Array Heatmap", each array performed twice, total n = 4) was 0.5942 and the “Array Heatmap value” value ([12]; ING5, sheet "Array Heatmap", each array performed twice, total n = 4) was 0.288. For the same substance, the “Array Heatmap value” value ([13]; SP140L, sheet "Array Heatmap", each array performed twice, total n = 4) was 0.3216, the “Array Heatmap value” value ([14]; BAZ2B, sheet "Array Heatmap", each array performed twice, total n = 4) was 0.3924 and the “Array Heatmap value” value ([15]; KDM7A, sheet "Array Heatmap", each array performed twice, total n = 4) was 0.3406. For the same substance, the “Array Heatmap value” value ([16]; CHD4 (PPCC), sheet "Array Heatmap", each array performed twice, total n = 4) was 0.5131, the “Array Heatmap value” value ([17]; PHF8, sheet "Array Heatmap", each array performed twice, total n = 4) was 0.3083 and the “Array Heatmap value” value ([18]; RAG2, sheet "Array Heatmap", each array performed twice, total n = 4) was 0.206. For the same substance, the “Array Heatmap value” value ([19]; MLL5, sheet "Array Heatmap", each array performed twice, total n = 4) was 0.508, the “Array Heatmap value” value ([20]; ING4, sheet "Array Heatmap", each array performed twice, total n = 4) was 0.3862 and the “Array Heatmap value” value ([21]; CHD5 (PCC), sheet "Array Heatmap", each array performed twice, total n = 4) was 0.7362. For the same substance, the “Array Heatmap value” value ([22]; PHF2, sheet "Array Heatmap", each array performed twice, total n = 4) was 0.4286, the “Array Heatmap value” value ([23]; BPTF (PB), sheet "Array Heatmap", each array performed twice, total n = 4) was 0.2876 and the “Array Heatmap value” value ([24]; TRIM66 (PB), sheet "Array Heatmap", each array performed twice, total n = 4) was 0.5132. For the same substance, the “Array Heatmap value” value ([25]; DIDO1, sheet "Array Heatmap", each array performed twice, total n = 4) was 0.6188, the “Array Heatmap value” value ([26]; KDM4C (TTP), sheet "Array Heatmap", each array performed twice, total n = 4) was 0.4138 and the “Array Heatmap value” value ([27]; KDM5B (1), sheet "Array Heatmap", each array performed twice, total n = 4) was 0.6155. For the same substance, the “Array Heatmap value” value ([28]; ING1, sheet "Array Heatmap", each array performed twice, total n = 4) was 0.4774, the “Array Heatmap value” value ([29]; KDM5A (3), sheet "Array Heatmap", each array performed twice, total n = 4) was 0.429 and the “Array Heatmap value” value ([30]; PHF23, sheet "Array Heatmap", each array performed twice, total n = 4) was 0.4636. The “Array Heatmap value” value ([31]; TAF3, sheet "Array Heatmap", each array performed twice, total n = 4) was 0.2218.
